Experimental data reported in publication PMC6979384, “Characterization of the plant homeodomain (PHD) reader family for their histone tail interactions” (Epigenetics & Chromatin, 2020).
Where no end group is shown, it is not given here. [ ]: non-standard residue; d: D form. Lys(Me2) = CN(C)CCCC[C@H](N)C(=O)O

Experiments:
Assay in all cases: Histone peptide microarray
Assay type in all cases: binding, human
KDM5B (3) = conditions: GST-tagged KDM5B (3)
Procedure, shortened: (§1)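 Each reader, produced as a GST fusion and purified, was tested at 0.5 μM on synthetic histone peptides (293 in total) carrying single or combinatorial marks. Intensities averaged over four replicates.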

PHF23 = conditions: GST-tagged PHF23
Procedure, shortened: as §1

DPF2 (PPC2W2) = test system: DPF2 (PPC2W2)
Procedure, shortened: as §1

BAZ2B = conditions: GST-tagged BAZ2B
Procedure, shortened: as §1

PHF13 = conditions: GST-tagged PHF13
Procedure, shortened: as §1

CHD5 (PCC) = test system: CHD5 (PCC)
Procedure, shortened: as §1

CHD4 (PPCC) = test system: CHD4 (PPCC)
Procedure, shortened: as §1

MLL5 = conditions: GST-tagged MLL5
Procedure, shortened: as §1

KDM5A (3) = conditions: GST-tagged KDM5A (3)
Procedure, shortened: as §1

MORC3 (CW) = test system: MORC3 (CW)
Procedure, shortened: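 Binding read as mean relative signal from 4 replicates; microarray held 293 synthetic histone peptides with single or combinatorial PTMs. Each GST-tagged PHD reader was applied at 0.5 μM using the optimized Petell protocol.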

SP140L = conditions: GST-tagged SP140L
Procedure, shortened: as §1

ING2 = conditions: GST-tagged ING2
Procedure, shortened: as §1

PHF8 = conditions: GST-tagged PHF8
Procedure, shortened: as §1

ING5 = conditions: GST-tagged ING5
Procedure, shortened: as §1

PHF21A = conditions: GST-tagged PHF21A
Procedure, shortened: as §1

TAF3 = conditions: GST-tagged TAF3
Procedure, shortened: as §1

CHD5 (PPCC) = test system: CHD5 (PPCC)
Procedure, shortened: as §1

RAG2 = conditions: GST-tagged RAG2
Procedure, shortened: as §1

DIDO1 = conditions: GST-tagged DIDO1
Procedure, shortened: as §1

TRIM66 (PB) = test system: TRIM66 (PB)
Procedure, shortened: as §1

KDM7A = conditions: GST-tagged KDM7A
Procedure, shortened: as §1

AIRE (PP) = conditions: GST-tagged AIRE (PP)
Procedure, shortened: as §1

BPTF (PB) = test system: BPTF (PB)
Procedure, shortened: as §1

KDM5B (1) = conditions: GST-tagged KDM5B (1)
Procedure, shortened: as §1

KDM4C (TTP) = test system: KDM4C (TTP)
Procedure, shortened: as §1

PHF2 = conditions: GST-tagged PHF2
Procedure, shortened: as §1

ING1 = conditions: GST-tagged ING1
Procedure, shortened: as §1

ING4 = conditions: GST-tagged ING4
Procedure, shortened: as §1

ING3 = conditions: GST-tagged ING3
Procedure, shortened: as §1

PHRF1 (RP) = conditions: GST-tagged PHRF1 (RP)
Procedure, shortened: as §1

KDM5A (1) = conditions: GST-tagged KDM5A (1)
Procedure, shortened: as §1

[1] = sheet "Array Heatmap", arrays performed twice, total replicate number n = 4
[2] = sheet Array Heatmap, each array performed twice, total n = 4

Substance: H3K4A + K9me2 (1-15): H3 1-15 (ARTAQTAR[Lys(Me2)]STGGKA; UniProt P68431 2-16, looked up, variant K4A)
- Array Heatmap signal, KDM5B (3) (KDM5B (3); [1]): 0.59
- Array Heatmap signal, PHF23 (PHF23; [1]): 0.6377
- Array Heatmap signal, DPF2 (PPC2W2) (DPF2 (PPC2W2); sheet "Array Heatmap", GST-tagged DPF2 (PPC2W2), arrays performed twice, total replicate number n = 4): 0.7164
- Array Heatmap signal, BAZ2B (BAZ2B; [1]): 0.512
- Array Heatmap signal, PHF13 (PHF13; [1]): 0.6939
- Array Heatmap signal, CHD5 (PCC) (CHD5 (PCC); sheet "Array Heatmap", GST-tagged CHD5 (PCC), arrays performed twice, total replicate number n = 4): 0.7736
- Array Heatmap signal, CHD4 (PPCC) (CHD4 (PPCC); sheet "Array Heatmap", GST-tagged CHD4 (PPCC), arrays performed twice, total replicate number n = 4): 0.6182
- Array Heatmap signal, MLL5 (MLL5; [1]): 0.7648
- Array Heatmap signal, KDM5A (3) (KDM5A (3); [1]): 0.6587
- Array Heatmap signal, MORC3 (CW) (MORC3 (CW); sheet "Array Heatmap", GST-tagged MORC3 (CW), arrays performed twice, total replicate number n = 4): 0.5677
- Array Heatmap signal, SP140L (SP140L; [1]): 0.3864
- Array Heatmap signal, ING2 (ING2; [1]): 0.695
- Array Heatmap signal, PHF8 (PHF8; [1]): 0.5196
- Array Heatmap signal, ING5 (ING5; [1]): 0.4518
- Array Heatmap signal, PHF21A (PHF21A; [1]): 0.468
- Array Heatmap signal, TAF3 (TAF3; [1]): 0.4571
- Array Heatmap signal, CHD5 (PPCC) (CHD5 (PPCC); sheet "Array Heatmap", GST-tagged CHD5 (PPCC), arrays performed twice, total replicate number n = 4): 0.6167
- Array Heatmap signal, RAG2 (RAG2; [1]): 0.4111
- Array Heatmap signal, DIDO1 (DIDO1; [1]): 0.8787
- Array Heatmap signal, TRIM66 (PB) (TRIM66 (PB); sheet "Array Heatmap", GST-tagged TRIM66 (PB), arrays performed twice, total replicate number n = 4): 0.6262
- Array Heatmap signal, KDM7A (KDM7A; [1]): 0.6423
- Array Heatmap signal, AIRE (PP) (AIRE (PP); [1]): 0.5312
- Array Heatmap signal, BPTF (PB) (BPTF (PB); sheet "Array Heatmap", GST-tagged BPTF (PB), arrays performed twice, total replicate number n = 4): 0.4333
- Array Heatmap signal, KDM5B (1) (KDM5B (1); [1]): 0.7016
- Array Heatmap signal, KDM4C (TTP) (KDM4C (TTP); sheet "Array Heatmap", GST-tagged KDM4C (TTP), arrays performed twice, total replicate number n = 4): 0.6461
- Array Heatmap signal, PHF2 (PHF2; [1]): 0.6167
- Array Heatmap signal, ING1 (ING1; [1]): 0.7124
- Array Heatmap signal, ING4 (ING4; [1]): 0.5574
- Array Heatmap signal, ING3 (ING3; [1]): 0.5843
- Array Heatmap signal, PHRF1 (RP) (PHRF1 (RP); [1]): 0.5557
- Array Heatmap signal, KDM5A (1) (KDM5A (1); [1]): 0.5206

Substance: H3K4ac + K9ac + K14ac + K18ac: H3 1-20
- Array Heatmap signal (histone peptide microarray) (KDM5B (3); [2]): 0.4694
- Array Heatmap signal (histone peptide microarray) (PHF23; [2]): 0.5552
- Array Heatmap signal (histone peptide microarray) (DPF2 (PPC2W2); GST-tagged DPF2 (PPC2W2 = Dual PHD + C2W2-type Zn-finger), sheet Array Heatmap, each array performed twice, total n = 4): 0.6596
- Array Heatmap signal (histone peptide microarray) (BAZ2B; [2]): 0.563
- Array Heatmap signal (histone peptide microarray) (PHF13; [2]): 0.5706
- Array Heatmap signal (histone peptide microarray) (CHD5 (PCC); GST-tagged CHD5 (PCC = PHD + Dual Chromodomain), sheet Array Heatmap, each array performed twice, total n = 4): 0.7123
- Array Heatmap signal (histone peptide microarray) (CHD4 (PPCC); GST-tagged CHD4 (PPCC = Dual PHD + Dual Chromodomain), sheet Array Heatmap, each array performed twice, total n = 4): 0.5829
- Array Heatmap signal (histone peptide microarray) (MLL5; [2]): 0.5536
- Array Heatmap signal (histone peptide microarray) (KDM5A (3); [2]): 0.4281
- Array Heatmap signal (histone peptide microarray) (MORC3 (CW); GST-tagged MORC3 (CW = CW-type Zn-finger), sheet Array Heatmap, each array performed twice, total n = 4): 0.3581
- Array Heatmap signal (histone peptide microarray) (SP140L; [2]): 0.3096
- Array Heatmap signal (histone peptide microarray) (ING2; [2]): 0.6105
- Array Heatmap signal (histone peptide microarray) (PHF8; [2]): 0.3207
- Array Heatmap signal (histone peptide microarray) (ING5; [2]): 0.3295
- Array Heatmap signal (histone peptide microarray) (PHF21A; [2]): 0.4272
- Array Heatmap signal (histone peptide microarray) (TAF3; [2]): 0.2581
- Array Heatmap signal (histone peptide microarray) (CHD5 (PPCC); GST-tagged CHD5 (PPCC = Dual PHD + Dual Chromodomain), sheet Array Heatmap, each array performed twice, total n = 4): 0.5084
- Array Heatmap signal (histone peptide microarray) (RAG2; [2]): 0.2412
- Array Heatmap signal (histone peptide microarray) (DIDO1; [2]): 0.7084
- Array Heatmap signal (histone peptide microarray) (TRIM66 (PB); GST-tagged TRIM66 (PB = PHD + Bromodomain), sheet Array Heatmap, each array performed twice, total n = 4): 0.6561
- Array Heatmap signal (histone peptide microarray) (KDM7A; [2]): 0.3021
- Array Heatmap signal (histone peptide microarray) (AIRE (PP); [2]): 0.3782
- Array Heatmap signal (histone peptide microarray) (BPTF (PB); GST-tagged BPTF (PB = PHD + Bromodomain), sheet Array Heatmap, each array performed twice, total n = 4): 0.3593
- Array Heatmap signal (histone peptide microarray) (KDM5B (1); [2]): 0.573
- Array Heatmap signal (histone peptide microarray) (KDM4C (TTP); GST-tagged KDM4C (TTP = Tandem Tudor domain + PHD), sheet Array Heatmap, each array performed twice, total n = 4): 0.4292
- Array Heatmap signal (histone peptide microarray) (PHF2; [2]): 0.6121
- Array Heatmap signal (histone peptide microarray) (ING1; [2]): 0.5598
- Array Heatmap signal (histone peptide microarray) (ING4; [2]): 0.4318
- Array Heatmap signal (histone peptide microarray) (ING3; [2]): 0.4699
- Array Heatmap signal (histone peptide microarray) (PHRF1 (RP); [2]): 0.4629
- Array Heatmap signal (histone peptide microarray) (KDM5A (1); [2]): 0.4231
